Experimental findings from patent US12495798B2, “Nicotinamide compound and herbicidal composition comprising compound” (KOREA RESEARCH INSTITUTE OF CHEMICAL TECHNOLOGY, priority 2019, dated 2025) are described below.

Common to all, as to format: in vivo
The subject of data set [1] is crabgrass. The data set is described as follows: Herbicidal activity test against upland field weeds (foliar treatment test). Further details: key to Foliar treatment herbicidal activity, Crabgrass: 0 (no control); 100 (complete control). The following applies: scale 0-100. The method, boiled down: (§1)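 Visual 0–100 control ratings relative to untreated plants, taken 14 (or 21) days after spraying foliage at 50 or 75 g a.i./ha. Spray solution: 50% acetone with 0.1% Tween-20; plants kept in greenhouse at 30±5 °C, 14 h light/10 h dark.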

In data set [2] the test system is cotton. The data set is described as follows: Phytotoxicity test for upland field crops (foliar treatment test). Also on record: key: 0 (no harm); 9 (complete withered). The method, boiled down: (§2)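 Spray-booth foliar treatment of greenhouse-grown crops at 19˜300 g a.i./ha. Visual crop injury was scored 0–9 against untreated plants at 7 and 14 days.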
Data set [3] deals with wheat. The description is as above. Further details: key: 0 (no harm); 9 (complete withered). The method, boiled down: as §2
Data set [4] relates to corn. Described as above. Further details: key: 0 (no harm); 9 (complete withered). An outline of the steps:
as §2

Data set [5] deals with soybean. Described as above. Also on record: key: 0 (no harm); 9 (complete withered). An outline of the steps: as §2
The subject of data set [6] is rice. The description is as above. Further details: key: 0 (no harm); 9 (complete withered). An outline of the steps: as §2
The test system of data set [7] is black nightshade. The data set is described as follows: Herbicidal activity test against upland field weeds (foliar treatment test). Further details: key to Foliar treatment herbicidal activity, black nightshade: 0 (no control); 100 (complete control). The following applies: scale 0-100. An outline of the steps:
as §1

For data set [8], the system named is sorghum. The description is as above. The following applies: Sorghum, scale 0-100; for plant injury at 50 g/ha: 50 g ai/ha. The method, boiled down:
as §1

Data set [9] has as its system velvetleaf. The data set is described as follows: Herbicidal activity test against upland field weeds (soil treatment test). Further details: key to Soil treatment herbicidal activity, velvet leaf: 0 (no control); 100 (complete control). The settings on record: scale 0 (no control) to 100 (complete control). The method, boiled down: (§3)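 Weed control scored visually on a 0 (none) to 100 (complete) scale versus untreated pots at 14 or 21 days in greenhouse (30±5 °C, 14 h light). Test compounds, 50 or 75 g a.i./ha in 50% acetone/0.1% Tween-20, hand-sprayed onto soil one day post-sowing.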

Data set [10] relates to fall panicum. The description is as above. Further details: key to Soil treatment herbicidal activity, Fall panicum: 0 (no control); 100 (complete control). The settings on record: scale 0 (no control) to 100 (complete control). An outline of the steps:
as §3

Data set [11] has as its system sorghum. The data set is described as above. Further details: key to Soil treatment herbicidal activity, Sorghum: 0 (no control); 100 (complete control). The settings on record: scale 0 (no control) to 100 (complete control). An outline of the steps:
as §3

For data set [12], the system named is quack grass. The data set is described as above. Also on record: key to Soil treatment herbicidal activity, quack grass: 0 (no control); 100 (complete control). The following applies: scale 0 (no control) to 100 (complete control). The method, boiled down: as §3
Data set [13] relates to velvetleaf. The data set is described as follows: Herbicidal activity test against upland field weeds (foliar treatment test). Further details: key to Foliar treatment herbicidal activity, velvet leaf: 0 (no control); 100 (complete control). An outline of the steps:
as §1

The mark [14] stands for this setting: Digitaria sanguinalis, 50 g ai/ha.
[15] abbreviates: 50 g ai/ha, Cotton (7 days after treatment).
Where [16] appears, read: 50 g ai/ha, Cotton (14 days after treatment).
The mark [17] stands for this setting: 100 g ai/ha, Cotton (7 days after treatment).
The mark [18] stands for this setting: 100 g ai/ha, Cotton (14 days after treatment).
The mark [19] stands for this setting: 50 g ai/ha, Wheat (7 days after treatment).
Where [20] appears, read: 50 g ai/ha, Wheat (14 days after treatment).
[21] abbreviates: 100 g ai/ha, Wheat (7 days after treatment).
Setting [22] is: 100 g ai/ha, Wheat (14 days after treatment).
Setting [23] is: 50 g ai/ha, Corn (7 days after treatment).
Where [24] appears, read: 50 g ai/ha, Corn (14 days after treatment).
Where [25] appears, read: 100 g ai/ha, Corn (7 days after treatment).
The mark [26] stands for this setting: 100 g ai/ha, Corn (14 days after treatment).
[27] abbreviates: 50 g ai/ha, Soybean (7 days after treatment).
[28] abbreviates: 50 g ai/ha, Soybean (14 days after treatment).
[29] abbreviates: 100 g ai/ha, Soybean (7 days after treatment).
[30] abbreviates: 100 g ai/ha, Soybean (14 days after treatment).
The mark [31] stands for this setting: 50 g ai/ha, Rice (7 days after treatment).
The mark [32] stands for this setting: 50 g ai/ha, Rice (14 days after treatment).
Where [33] appears, read: 100 g ai/ha, Rice (7 days after treatment).
[34] abbreviates: 100 g ai/ha, Rice (14 days after treatment).
Setting [35] is: Abutilon theophrasti, 50 g ai/ha, scale 0-100, read-out: Foliar treatment herbicidal activity, velvet leaf.

As a reminder, the plant injury is the degree to which the test organism was suppressed or injured, in per cent.

Take `CON(Cc1nnn(C)n1)c1nc(C(F)(F)F)ccc1C(=O)Nc1nnnn1C` [Compound No. 2-30, 2-(methoxy((2-methyl-2H-tetrazol-5-yl)methyl)amino)-N-(1-methyl-1H-tetrazol-5-yl)-6-(trifluoromethyl)nicotinamide]: in [1] (setting [14]), the pest or weed control at 50 g/ha amounted to 95%. Further, the “Foliar treatment phytotoxicity, Cotton” value was 0 in data set [2] (setting [15]), 0 in data set [2] (setting [16]), 3 in [2] (setting [17]) and 8 in [2] (setting [18]). Also, the “Foliar treatment phytotoxicity, Wheat” value in data set [3] (setting [19]) came out at 2; in [3] (setting [20]), 1; in [3] (setting [21]) it was 3; in data set [3] (setting [22]), 3. Besides, the “Foliar treatment phytotoxicity, Corn” value in [4] (setting [23]) stood at 0; in [4] (setting [24]), 0; in [4] (setting [25]), 1; in data set [4] (setting [26]), 1. Also, the “Foliar treatment phytotoxicity, Soybean” value in [5] (setting [27]) is reported as 0; in [5] (setting [28]) it was 0; in data set [5] (setting [29]), 6; in [5] (setting [30]), 6. Moreover, the “Foliar treatment phytotoxicity, Rice” value in [6] (setting [31]) was found to be 3; in [6] (setting [32]), 5; in data set [6] (setting [33]) it was 5; in data set [6] (setting [34]), 7. For the same compound, the “Foliar treatment herbicidal activity, black nightshade” value in data set [7] (50 g ai/ha) is 100. Moreover, the plant injury at 50 g/ha in data set [8] was determined as 20%; in data set [11] (Sorghum, 50 g ai/ha) it was 50%. For the same compound, the “Soil treatment herbicidal activity, velvet leaf” value in data set [9] (50 g ai/ha) is 100. In addition, in data set [10] (50 g ai/ha), the “Soil treatment herbicidal activity, Fall panicum” value turned out to be 100. The “Soil treatment herbicidal activity, quack grass” value in data set [12] (50 g ai/ha) is on record as 0. Besides, in data set [13] (50 g ai/ha, scale 0-100), the “Foliar treatment herbicidal activity, velvet leaf” value is listed as 100.

With `Cn1nnnc1NC(=O)c1ccc(C(F)(F)F)nc1OCc1nnnn1C(F)F` [Compound No. 1-26, 2-((1-(difluoromethyl)-1H-tetrazol-5-yl)methoxy)-N-(1-methyl-1H-tetrazol-5-yl)-6-(trifluoromethyl)nicotinamide], the pest or weed control at 50 g/ha in data set [1] (setting [14]) was 98%; in data set [10] (Panicum dichotomiflorum, 50 g ai/ha), 60%; in data set [13] (setting [35]) it was 50%. The “Foliar treatment phytotoxicity, Cotton” value in data set [2] (setting [15]) is recorded as 2; in data set [2] (setting [16]), 6; in [2] (setting [17]) it was 4; in [2] (setting [18]), 9. Moreover, the “Foliar treatment phytotoxicity, Wheat” value in data set [3] (setting [19]) is listed as 0; in data set [3] (setting [20]), 0; in data set [3] (setting [21]), 1; in data set [3] (setting [22]), 2. Further, the “Foliar treatment phytotoxicity, Corn” value in [4] (setting [23]) is given as 1; in data set [4] (setting [24]), 0; in data set [4] (setting [25]), 2; in data set [4] (setting [26]), 2. In addition, the “Foliar treatment phytotoxicity, Soybean” value in [5] (setting [27]), in data set [5] (setting [28]), in [5] (setting [29]) and in data set [5] (setting [30]) was 5 throughout. The “Foliar treatment phytotoxicity, Rice” value is recorded as 3 in [6] (setting [31]), 6 in [6] (setting [32]), 4 in data set [6] (setting [33]) and 7 in data set [6] (setting [34]). Further, in data set [7] (50 g ai/ha), the “Foliar treatment herbicidal activity, black nightshade” value is reported as 100. Further, the plant injury at 50 g/ha was found to be 70% in data set [8] and 30% in [11] (Sorghum, 50 g ai/ha). Further, the “Soil treatment herbicidal activity, velvet leaf” value in data set [9] (50 g ai/ha) worked out at 100. Also, the “Soil treatment herbicidal activity, quack grass” value in [12] (50 g ai/ha) amounted to 0.

Consider `CN(Cc1nnn(C)n1)c1nc(C(F)(F)F)ccc1C(=O)Nc1nnnn1C` [Compound No. 2-26, 2-(methyl((2-methyl-2H-tetrazol-5-yl)methyl)amino)-N-(1-methyl-1H-tetrazol-5-yl)-6-(trifluoromethyl)nicotinamide], for which the pest or weed control at 75 g/ha is 95% in [1] (Digitaria sanguinalis, 75 g ai/ha) and 98% in data set [13] (Abutilon theophrasti, 75 g ai/ha, scale 0-100, read-out: Foliar treatment herbicidal activity, velvet leaf). The “Foliar treatment phytotoxicity, Cotton” value in [2] (setting [15]) is recorded as 1; in data set [2] (setting [16]), 4; in [2] (setting [17]), 2; in data set [2] (setting [18]), 4. In addition, the “Foliar treatment phytotoxicity, Wheat” value is recorded as 1 in data set [3] (setting [19]), 0 in [3] (setting [20]), 1 in [3] (setting [21]) and 0 in data set [3] (setting [22]). In addition, the “Foliar treatment phytotoxicity, Corn” value in data set [4] (setting [23]), in data set [4] (setting [24]), in data set [4] (setting [25]) and in [4] (setting [26]) was 0 each time. Moreover, the “Foliar treatment phytotoxicity, Soybean” value turned out to be 3 in data set [5] (setting [27]), 9 in data set [5] (setting [28]), 4 in data set [5] (setting [29]) and 9 in [5] (setting [30]). Also, the “Foliar treatment herbicidal activity, black nightshade” value in data set [7] (75 g ai/ha) was determined as 100. In addition, the plant injury at 75 g/ha came to 10% in data set [8] (75 g ai/ha) and 20% in data set [11] (Sorghum, 75 g ai/ha). Besides, the “Soil treatment herbicidal activity, velvet leaf” value in [9] (75 g ai/ha) stood at 100. Moreover, the “Soil treatment herbicidal activity, Fall panicum” value in data set [10] (75 g ai/ha) is reported as 100. The “Soil treatment herbicidal activity, quack grass” value in data set [12] (75 g ai/ha) is 0.

On to `Cn1nnc(CSCc2nc(C(F)(F)F)ccc2C(=O)N(C(=O)c2ccccc2)c2nnnn2C)n1` [Compound No. 2-109, N-benzoyl-N-(1-methyl-1H-tetrazol-5-yl)-2-((((2-methyl-2H-tetrazol-5-yl)methyl)thio)methyl)-6-(trifluoromethyl)nicotinamide], for which, in [1] (50 g ai/ha), the “Foliar treatment herbicidal activity, Crabgrass” value is on record as 100. Further, the “Foliar treatment phytotoxicity, Wheat” value in data set [3] (setting [19]) is recorded as 2; in data set [3] (setting [20]), 2; in data set [3] (setting [21]) it was 3; in data set [3] (setting [22]), 3. The “Foliar treatment phytotoxicity, Corn” value in [4] (setting [23]), in data set [4] (setting [24]), in data set [4] (setting [25]) and in data set [4] (setting [26]) was 0 throughout. For the same compound, the “Foliar treatment herbicidal activity, black nightshade” value in [7] (50 g ai/ha) amounted to 100. For the same compound, the plant injury at 50 g/ha in data set [8] is 80%. Moreover, the “Soil treatment herbicidal activity, velvet leaf” value in data set [9] (50 g ai/ha) is 100. The “Soil treatment herbicidal activity, Fall panicum” value in [10] (50 g ai/ha) came to 0. Moreover, the “Soil treatment herbicidal activity, Sorghum” value in [11] (50 g ai/ha) is recorded as 0. In addition, the “Soil treatment herbicidal activity, quack grass” value in data set [12] (50 g ai/ha) turned out to be 0. Besides, the pest or weed control at 50 g/ha in [13] (setting [35]) turned out to be 80%.
